Experimental findings from US12521393B2, “Cytotoxicity targeting chimeras for CCR2-expressing cells” (GLAXOSMITHKLINE INTELLECTUAL PROPERTY DEVELOPMENT LIMITED, priority 2021, dated 2026) are described below.

In experiment [1] the test system is CCR2 expressing cells (CD11b+Ly6c+Hi) in peripheral blood. Nature of the experiment: In vivo depletion assay, flow cytometry of peripheral blood (Example 201). Set-up: species or system human CCR2 knock-in mice (C57 background). The settings on record: hCCR2 knock-in mice, IV 0.1 mpk compound + 10 mpk anti-cotinine antibody (SEQ ID NO: 13/14), peripheral blood at 48 hr. As for the experimental part:
Stock solution preparation. Stock solutions of compounds of Formula (I) were prepared at 20 mg/mL and 100 mg/mL in […] for PK/PD and dose tolerability studies respectively. Stock solutions were stored at […] until further usage. on the day of experiment, the stock Solution of the compound of Formula (I) was removed from storage at […] and thawed at room temperature. Anti-cotinine antibody having a heavy chain sequence of SEC ID NO: 13 and a light chain sequence of SEQ ID NO: 14 (rabbit variable region sequence with mouse IgG2a Fc domain), if required was removed from storage at −80° C. and thawed at room temperature. Antibody vials were immediately transferred into wet ice after thawing. Compounds of Formula (I) were further diluted in DMSO as per experimental requirements.
The formulation composition was Saline: DMSI: PBS.
Saline was added based on the quantity required and then stock solution of the compound of Formula (I) prepared in DMSO, followed by addition of antibody in PBS. Formulations were incubated at room temperature for 30 minutes before administration to the mouse. DMSO was used at 1 to % (v/v) in the final formulation.
After bleeding, each mouse was sacrificed by cervical dislocation. […] Flow Cytometry Analysis:
CCR2 depletion in peripheral blood was determined by flow cytometry. Briefly, peripheral blood was collected from all animals at the end of study termination and processed. Blood samples were lysed using 1×RBC Lysis buffer and the resulting cell pellet was washed twice in FACS buffer (HBSS containing 5% FBS). Cells were subjected to Fc blocking using mouse Fc block from Biolegend (Trustain, anti-mouse CD16/32, Cat: 101319) to block non-specific binding followed by surface staining for immune markers (CD45, CD3, CD11 b, Ly6C, human CCR2). Surface staining was done for 30 minutes in ice and cells were washed twice to remove unbound antibodies. Cells were stained with 7AAD to determine viability and acquired on BD FACSVerse flow cytometer. Appropriate FMO controls and single-color controls were included in the experiment for gating and compensation respectively.
Percent depletion of CD11 b+Ly6c+Hi cells and CCR2 expression for the different treatment groups was determined.
On the technique in general: A flow cytometer gives signals particle by particle.

The target in experiment [2] is human alpha1 nicotinic acetylcholine (nACh) receptor (Homo sapiens, UniProt P02708). Nature of the experiment: Nicotinic acetylcholine receptor antagonism assay, IONFlux automated patch clamp (Example 203). Type of experiment: cell-based. The settings on record: for IC50: antagonism of ACh-stimulated human alpha1 nAChR current, patch clamp; for Emax at 100 µM: maximum percentage antagonism at maximum concentration tested 100 μM, read-out: Maximum Response. Here is the method:
Cells expressing human alpha1 nicotinic acetylcholine (nACh) receptor (nAChR) were washed and dissociated using Trypsin containing buffer. Cells were then washed and seeded at a density of 3-5 million cells/mL and allowed to grow for 3 days. Then, 60-80 μL of cells were added to plates and incubated with dose response of an ARM compound of Formula (I) with a top concentration of either 10 μM or 100 μM. The receptor was then stimulated via addition of acetylcholine (ACh) and activation of the receptor was monitored via the IONFlux automated patch clamp system. IonFlux Data Analyzer software was utilized to perform leak subtraction and measure (min) peak current amplitude.
Data processing: (1) Current values recorded for vehicle only applications in individual traps/patterns were subtracted from corresponding current amplitude values for control, test article and control+test article. (2) Control response was calculated as % of the average response of the 3rd out of total 3 ACh (10 mM) applications alone. In rare situations, if the 3rd ACh response was obscured due to technical artifacts, the 2nd and/or 1st ACh (10 mM) application was considered as control. The peak current amplitude generated in the presence of each test article concentration was then used to calculate the % inhibition as compared to control response (10 mM ACh alone). These estimates were further corrected for vehicle response and run down corrected by normalizing with time matched control responses (10 mM ACh alone). The corrected percentages were then fit with a non-linear function in GraphPad Prism 6 (or later versions) to determine the IC50.
Exclusion criteria: (i) any n's with poor recording quality, (ii) control current amplitude <500 pA or (iii) significant outliers, as determined by the Grubbs test.
ARMs compounds of Formula (I) of the invention were tested for antagonism of the nAChR in the above assay in […] experimental runs and the results are shown in Table 7 below. Antagonistic activity of the compounds of Formula (I) of the invention is reported as an IC50 value (half maximal inhibitory concentration) and the maximum percentage antagonism observed at the highest concentration of compound of Formula (I) tested, as indicated in Table 7. For compounds tested in more than one experimental run, the IC50 value is reported as an average
In general terms: In patch-clamp work, channel activity is measured electrically.

For experiment [3], the system named is endogenous target monocytes in human PBMC. As to the kind of experiment: PBMC ex vivo monocyte depletion flow cytometry assay (Example 200). Type of experiment: cell-based. As to conditions: with anti-cotinine antibody (SEQ ID NO: 11/12), 18-24 hours, EC50 in molar, read-out: Ex Vivo Depletion Assay pEC50 (converted). Put shortly: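 Monocyte depletion is reported as pEC50, averaged or given individually across runs, and read by flow cytometry staining CD45, CD14 and CD4 with a viability dye. Compounds, diluted four-fold over 11 points from 1 mM DMSO stocks, were combined with 30 μg/mL Fc-enhanced anti-cotinine antibody and human PBMC, then incubated 18-24 h at 37° C.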

human alpha1 nicotinic acetylcholine (nACh) receptor, sequence (P02708 21-457): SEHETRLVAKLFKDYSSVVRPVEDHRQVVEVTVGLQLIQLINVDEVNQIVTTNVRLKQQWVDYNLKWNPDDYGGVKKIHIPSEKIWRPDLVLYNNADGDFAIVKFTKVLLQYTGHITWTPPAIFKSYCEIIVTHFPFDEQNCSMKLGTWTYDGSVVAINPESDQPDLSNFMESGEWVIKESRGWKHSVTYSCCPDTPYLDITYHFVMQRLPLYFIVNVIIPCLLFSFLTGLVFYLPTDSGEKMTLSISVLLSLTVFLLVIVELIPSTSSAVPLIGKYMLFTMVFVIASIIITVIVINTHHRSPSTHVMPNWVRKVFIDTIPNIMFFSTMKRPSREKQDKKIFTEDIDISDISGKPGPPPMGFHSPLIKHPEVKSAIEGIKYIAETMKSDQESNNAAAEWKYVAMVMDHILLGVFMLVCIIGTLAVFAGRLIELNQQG
human alpha1 nicotinic acetylcholine (nACh) receptor, sequence (P11230 24-501 partner): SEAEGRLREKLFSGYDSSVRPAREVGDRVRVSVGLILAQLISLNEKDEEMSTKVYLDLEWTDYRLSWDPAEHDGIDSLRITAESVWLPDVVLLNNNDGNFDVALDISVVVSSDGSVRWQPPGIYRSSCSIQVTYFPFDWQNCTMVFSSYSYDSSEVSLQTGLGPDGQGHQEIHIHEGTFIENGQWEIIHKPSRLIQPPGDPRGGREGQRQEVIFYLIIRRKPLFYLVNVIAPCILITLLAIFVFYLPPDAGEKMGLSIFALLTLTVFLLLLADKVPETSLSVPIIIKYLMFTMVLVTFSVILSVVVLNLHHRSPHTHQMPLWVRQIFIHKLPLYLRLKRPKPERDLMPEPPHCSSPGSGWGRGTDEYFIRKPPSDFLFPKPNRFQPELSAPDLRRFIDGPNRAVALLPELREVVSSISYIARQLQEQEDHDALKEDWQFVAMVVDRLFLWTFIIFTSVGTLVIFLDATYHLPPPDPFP
human alpha1 nicotinic acetylcholine (nACh) receptor, sequence (Q07001 22-517 partner): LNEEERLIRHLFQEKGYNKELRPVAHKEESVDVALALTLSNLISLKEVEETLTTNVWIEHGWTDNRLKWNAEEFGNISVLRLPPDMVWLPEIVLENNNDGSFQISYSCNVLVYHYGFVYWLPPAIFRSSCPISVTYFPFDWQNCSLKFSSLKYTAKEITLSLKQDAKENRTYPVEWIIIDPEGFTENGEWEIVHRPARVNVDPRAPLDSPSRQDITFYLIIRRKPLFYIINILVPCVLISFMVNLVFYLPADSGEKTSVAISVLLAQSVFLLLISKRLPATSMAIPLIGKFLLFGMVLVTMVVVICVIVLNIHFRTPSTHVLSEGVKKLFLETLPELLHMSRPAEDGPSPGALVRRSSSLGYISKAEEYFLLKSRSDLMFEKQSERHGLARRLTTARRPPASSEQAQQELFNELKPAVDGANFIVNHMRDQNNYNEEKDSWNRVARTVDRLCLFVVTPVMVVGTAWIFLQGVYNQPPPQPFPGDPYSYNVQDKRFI

`CC(C)N(C)[C@@H]1CC[C@H](N2CC[C@H](Nc3ncnc4ccc(C(F)(F)F)cc34)C2=O)[C@H](NC(=O)[C@H]2C[C@H](NC(=O)CCCO[C@H]3CC[C@H](OCCNC(=O)[C@H]4CC(=O)N(C)[C@@H]4c4cccnc4)CC3)C2)C1` [Example 8, (2S,3S)-N-(2-(((1R,4S)-4-(4-(((1R,3R)-3-(((1R,2S,5R)-5-(Isopropyl(methyl)amino)-2-((S)-2-oxo-3-((6-(trifluoromethyl)quinazolin-4-yl)amino)pyrrolidin-1-yl)cyclohexyl)carbamoyl)cyclobutyl)amino)-4-oxobutoxy)cyclohexyl)oxy)ethyl)-1-methyl-5-oxo-2-(pyridin-3-yl)pyrrolidine-3-carboxamide]: the “% Depletion of CCR2 expressing cells” value in experiment [1] was 90.3%. In experiment [2], half-maximal inhibition (IC50) required 47.2 µM and the Emax at 100 µM is 73.1%.
On to `CC(C)N(C)[C@@H]1CC[C@H](N2CC[C@H](Nc3ncnc4ccc(C(F)(F)F)cc34)C2=O)[C@H](NC(=O)[C@H]2CC[C@@H](NC(=O)CCOCCCNC(=O)CCCNC(=O)[C@H]3CC(=O)N(C)[C@@H]3c3cccnc3)CC2)C1` [Example 17, (2S,3S)-N-(4-((3-(3-(((1S,4s)-4-(((1R,2S,5R)-5-(Isopropyl(methyl)amino)-2-((S)-2-oxo-3-((6-(trifluoromethyl)quinazolin-4-yl)amino)pyrrolidin-1-yl)cyclohexyl)carbamoyl)cyclohexyl)amino)-3-oxopropoxy)propyl)amino)-4-oxobutyl)-1-methyl-5-oxo-2-(pyridin-3-yl)pyrrolidine-3-carboxamide], for which, in experiment [3], the EC50 is 0.631 nM. Also, the “% Depletion of CCR2 expressing cells” value in experiment [1] was 91%. In experiment [2], the IC50 (in general, the concentration at which inhibition is half-maximal) is no less than 100 µM and the Emax at 100 µM amounted to 55.1%.
On the same counts, the results for `CC(C)N(C)[C@@H]1CC[C@H](N2CC[C@H](Nc3ncnc4ccc(C(F)(F)F)cc34)C2=O)[C@H](NC(=O)[C@H]2C[C@H](NC(=O)CCOCCOCCOCCNC(=O)[C@H]3CC(=O)N(C)[C@@H]3c3cccnc3)C2)C1` [Example 27, (2S,3S)-N-(2-(2-(2-(3-(((1R,3r)-3-(((1R,2S,5R)-5-(Isopropyl(methyl)amino)-2-((S)-2-oxo-3-((6-(trifluoromethyl)quinazolin-4-yl)amino)pyrrolidin-1-yl)cyclohexyl)carbamoyl)cyclobutyl)amino)-3-oxopropoxy)ethoxy)ethoxy)ethyl)-1-methyl-5-oxo-2-(pyridin-3-yl)pyrrolidine-3-carboxamide] are 10 nM, 80%, 93.7 µM and 53.8%.
On the same counts, the results for `CC(C)N(C)[C@@H]1CC[C@H](N2CC[C@H](Nc3ncnc4ccc(C(F)(F)F)cc34)C2=O)[C@H](NC(=O)[C@H]2C[C@@H](NC(=O)CCOCCNC(=O)CCOCCNC(=O)[C@H]3CC(=O)N(C)[C@@H]3c3cccnc3)C2)C1` [Example 44, (2S,3S)-N-(2-(3-((2-(3-(((1S,3s)-3-(((1R,2S,5R)-5-(Isopropyl(methyl)amino)-2-((S)-2-oxo-3-((6-(trifluoromethyl)quinazolin-4-yl)amino)pyrrolidin-1-yl)cyclohexyl)carbamoyl)cyclobutyl)amino)-3-oxopropoxy)ethyl)amino)-3-oxopropoxy)ethyl)-1-methyl-5-oxo-2-(pyridin-3-yl)pyrrolidine-3-carboxamide] are 0.631 nM, 91%, no less than 100 µM and 51.5%.
In the case of `CC(C)N(C)[C@@H]1CC[C@H](N2CC[C@H](Nc3ncnc4ccc(C(F)(F)F)cc34)C2=O)[C@H](NC(=O)C2CCN(c3cnc(NCCOCCOCCNC(=O)[C@H]4CC(=O)N(C)[C@@H]4c4cccnc4)cn3)CC2)C1` [Example 162, N-((1R,2S,5R)-5-(Isopropyl(methyl)amino)-2-((S)-2-oxo-3-((6-(trifluoromethyl)quinazolin-4-yl)amino)pyrrolidin-1-yl)cyclohexyl)-1-(5-((2-(2-(2-((2S,3S)-1-methyl-5-oxo-2-(pyridin-3-yl)pyrrolidine-3-carboxamido)ethoxy)ethoxy)ethyl)amino)pyrazin-2-yl)piperidine-4-carboxamide], the EC50 in experiment [3] is 1.58 nM. Besides, in experiment [1], the “% Depletion of CCR2 expressing cells” value is listed as 66%.
On the same counts, the results for `CC(C)N(C)[C@@H]1CC[C@H](N2CC[C@H](Nc3ncnc4ccc(C(F)(F)F)cc34)C2=O)[C@H](NC(=O)[C@H]2CC[C@@H](NC(=O)C3CCC4(CC3)CCN(CCNC(=O)[C@H]3CC(=O)N(C)[C@@H]3c3cccnc3)CC4)CC2)C1` [Example 170, N-((1S,4s)-4-(((1R,2S,5R)-5-(Isopropyl(methyl)amino)-2-((S)-2-oxo-3-((6-(trifluoromethyl)quinazolin-4-yl)amino)pyrrolidin-1-yl)cyclohexyl)carbamoyl)cyclohexyl)-3-(2-((2S,3S)-1-methyl-5-oxo-2-(pyridin-3-yl)pyrrolidine-3-carboxamido)ethyl)-3-azaspiro[5.5]undecane-9-carboxamide] are 0.398 nM and 94.75%.
The corresponding values for `CC(C)N(C)[C@@H]1CC[C@H](N2CC[C@H](Nc3ncnc4ccc(C(F)(F)F)cc34)C2=O)[C@H](NC(=O)C2CCN(C3CCN(C(=O)CCOCCOCCNC(=O)[C@H]4CC(=O)N(C)[C@@H]4c4cccnc4)CC3)CC2)C1` [Example 172, N-((1R,2S,5R)-5-(Isopropyl(methyl)amino)-2-((S)-2-oxo-3-((6-(trifluoromethyl)quinazolin-4-yl)amino)pyrrolidin-1-yl)cyclohexyl)-1′-(3-(2-(2-((2S,3S)-1-methyl-5-oxo-2-(pyridin-3-yl)pyrrolidine-3-carboxamido)ethoxy)ethoxy)propanoyl)-[1,4′-bipiperidine]-4-carboxamide] are 2 nM and 80%.
Take `CC(C)N(C)[C@@H]1CC[C@H](N2CC[C@H](Nc3ncnc4ccc(C(F)(F)F)cc34)C2=O)[C@H](NC(=O)CCOCCOCCO[C@H]2CC[C@H](OCCNC(=O)[C@H]3CC(=O)N(C)[C@@H]3c3cccnc3)CC2)C1` [Example 192, (2S,3S)-N-(2-(((1R,4S)-4-(2-(2-(3-(((1R,2S,5R)-5-(Isopropyl(methyl)amino)-2-((S)-2-oxo-3-((6-(trifluoromethyl)quinazolin-4-yl)amino)pyrrolidin-1-yl)cyclohexyl)amino)-3-oxopropoxy)ethoxy)ethoxy)cyclohexyl)oxy)ethyl)-1-methyl-5-oxo-2-(pyridin-3-yl)pyrrolidine-3-carboxamide]: the “% Depletion of CCR2 expressing cells” value in experiment [1] was 84.8%. In addition, in experiment [2], half-maximal inhibition (IC50) required 74.3 µM and the Emax at 100 µM is 53%.
